{"source": "patent US20030044399A1", "about": "“Method of treatment” (SmithKline Beecham Corporation, priority 1998, published 2003)", "key": {"[1]": {"biological_target": "T1, Leishmania B (UniProt P90627)", "T1 sequence (P90627 1-340)": "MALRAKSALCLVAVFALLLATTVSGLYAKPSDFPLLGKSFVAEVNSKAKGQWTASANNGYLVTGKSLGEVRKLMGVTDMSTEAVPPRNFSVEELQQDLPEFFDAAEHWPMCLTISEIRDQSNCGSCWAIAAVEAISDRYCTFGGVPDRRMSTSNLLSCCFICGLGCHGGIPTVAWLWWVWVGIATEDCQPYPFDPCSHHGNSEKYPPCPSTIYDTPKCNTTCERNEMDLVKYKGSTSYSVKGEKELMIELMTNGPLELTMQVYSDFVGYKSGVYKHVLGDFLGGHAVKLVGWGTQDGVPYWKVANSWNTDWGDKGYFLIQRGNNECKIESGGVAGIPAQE", "assay": "Cysteine protease inhibition, progress curve method, leishmania B", "format": "biochemical, Leishmania spp", "details": "read-out: Leishmania B Ki nM; 10 uM Cbz-Phe-Arg-AMC, 100 mM Na acetate pH 5.5, 5 mM cysteine", "method": "(§1) Standard assay conditions for the determination of kinetic constants used 10 uM fluorogenic peptide substrate, Cbz-Phe-Arg-AMC for the cysteine proteases from Leishmania spp and Schistosoma Mansoni, Cbz-Leu-Arg-AMC for the cysteine proteases from Plasmodium falciparum and Trypanosoma brucei rhodesiensi, and Ac-Lys-Glu-Lys-Leu-Arg-AMC (4 uM final substrate concentration) for the cysteine protease from Trypoanosoma cruzi, and were determined in 100 mM Na acetate at pH 5.5 containing 5 mM cysteine. Stock substrate solutions were prepared at concentrations of […] in DMSO with 10 uM (4 uM for Ac-Lys-Glu-Lys-Leu-Arg-AMC) final substrate concentration in the assays. The final DMSO concentration was 2% and the final volume was 100 uL. All assays were conducted at ambient temperature. Product progress curves were generated over 20 to 30 minutes following formation of AMC product.\n(§2) Potential inhibitors were evaluated using the progress curve method. Assays were carried out in the presence of variable concentrations of test compound. Reactions were initiated by addition of enzyme to buffered solutions of inhibitor and substrate. Data analysis was conducted according to one of two procedures depending on the appearance of the progress curves in the presence of inhibitors. For those compounds whose progress curves were linear, apparent inhibition constants (Ki,app) were calculated according to equation 1 (Brandt et al., Biochemitsry, 1989, 28, 140):\n(§3) v=VmA/[Ka(1+I/Ki,app)+A] (1)\n(§4) Where v is the velocity of the reaction with maximal velocity Vm, A is the concentration of substrate with Michaelis constant of Ka, and I is the concentration of inhibitor.\n(§5) [AMC]=vsst+(v0−vss)[1−exp (−kobst)]/kobs (2)\n(§6) Where [AMC] is the concentration of product formed over time t, v0 is the initial reaction velocity and vss is the final steady state rate. Values for kobs were then analyzed as a linear function of inhibitor concentration to generate an apparent second order rate constant (kobs/inhibitor concentration or kobs/[I]) describing the time-dependent inhibition. A complete discussion of this kinetic treatment has been fully described (Morrison et al., Adv. Enzymol. Relat. Areas Mol. Biol., 1988, 61, 201).\n(§7) Exemplary inhibition data for the compounds used in the present method collected in accordance with the above-described procedure are listed in Table I."}, "[2]": {"biological_target": "Schisto B 1 (Schistosoma mansoni, UniProt P25792)", "sequence (P25792 89-340)": "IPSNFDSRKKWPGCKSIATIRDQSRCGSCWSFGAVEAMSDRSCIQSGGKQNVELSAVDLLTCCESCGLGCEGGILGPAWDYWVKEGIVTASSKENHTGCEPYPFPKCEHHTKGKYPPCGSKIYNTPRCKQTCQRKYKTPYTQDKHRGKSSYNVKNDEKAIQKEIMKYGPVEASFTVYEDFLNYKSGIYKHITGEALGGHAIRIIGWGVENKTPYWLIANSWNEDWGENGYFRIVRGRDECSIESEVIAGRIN", "assay": "Cysteine protease inhibition, progress curve method, schistosoma B 1", "format": "biochemical", "details": "10 uM Cbz-Phe-Arg-AMC, 100 mM Na acetate pH 5.5, 5 mM cysteine; read-out: Schisto B 1 Ki", "method": "as §1, §2, §3, §4, §5, §6, §7"}, "[3]": {"biological_target": "Schisto B 2 (Schistosoma mansoni, UniProt Q95PM1)", "sequence (Q95PM1 entry or part of it)": "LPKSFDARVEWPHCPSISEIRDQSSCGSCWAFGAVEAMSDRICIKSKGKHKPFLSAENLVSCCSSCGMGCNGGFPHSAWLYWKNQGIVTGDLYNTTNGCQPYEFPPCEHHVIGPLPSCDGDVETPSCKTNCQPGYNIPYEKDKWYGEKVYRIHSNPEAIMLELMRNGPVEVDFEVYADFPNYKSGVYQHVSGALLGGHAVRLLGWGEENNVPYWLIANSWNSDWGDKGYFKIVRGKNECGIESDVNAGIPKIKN", "assay": "Cysteine protease inhibition, progress curve method, schistosoma B 2", "format": "biochemical", "details": "10 uM Cbz-Phe-Arg-AMC, 100 mM Na acetate pH 5.5, 5 mM cysteine", "method": "as §1, §2, §3, §4, §5, §6, §7"}, "[4]": {"biological_target": "Rhodazain (Trypanosoma brucei rhodesiense, UniProt Q95PM0)", "sequence (Q95PM0 entry or part of it)": "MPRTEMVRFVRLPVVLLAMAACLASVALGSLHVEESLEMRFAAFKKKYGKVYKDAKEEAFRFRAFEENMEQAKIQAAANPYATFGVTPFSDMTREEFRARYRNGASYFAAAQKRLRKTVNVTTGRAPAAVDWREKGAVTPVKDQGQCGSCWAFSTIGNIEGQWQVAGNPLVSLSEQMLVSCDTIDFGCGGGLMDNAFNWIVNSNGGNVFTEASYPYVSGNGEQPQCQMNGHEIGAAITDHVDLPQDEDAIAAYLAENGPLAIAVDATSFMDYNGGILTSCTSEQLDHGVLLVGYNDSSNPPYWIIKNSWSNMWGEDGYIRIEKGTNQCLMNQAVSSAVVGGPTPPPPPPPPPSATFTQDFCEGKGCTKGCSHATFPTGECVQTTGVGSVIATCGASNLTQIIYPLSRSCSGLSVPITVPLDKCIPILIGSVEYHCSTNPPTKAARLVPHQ", "assay": "Cysteine protease inhibition, progress curve method, rhodazain", "format": "biochemical, Trypanosoma brucei rhodesiensi", "details": "Rhodazain Ki (nM), 10 uM Cbz-Leu-Arg-AMC, 100 mM Na acetate pH 5.5, 5 mM cysteine"}, "[5]": {"biological_target": "Cruzain (Trypanosoma cruzi, UniProt P25779)", "sequence (P25779 123-337)": "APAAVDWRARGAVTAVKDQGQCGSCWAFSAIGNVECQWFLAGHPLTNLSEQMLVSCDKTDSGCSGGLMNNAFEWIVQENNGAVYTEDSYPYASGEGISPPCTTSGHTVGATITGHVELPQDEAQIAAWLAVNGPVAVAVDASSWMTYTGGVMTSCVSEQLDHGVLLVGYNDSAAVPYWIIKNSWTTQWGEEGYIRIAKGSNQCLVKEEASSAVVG", "assay": "Cysteine protease inhibition, progress curve method, cruzain", "format": "biochemical", "details": "4 uM Ac-Lys-Glu-Lys-Leu-Arg-AMC, 100 mM Na acetate pH 5.5, 5 mM cysteine; read-out: Cruzain Ki", "procedure,_shortened": "(§8)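 Buffer was 100 mM sodium acetate pH 5.5 with 5 mM cysteine and 2% DMSO, at ambient temperature; reactions started with enzyme, and AMC formation was followed for 20–30 min. Substrates: Leishmania and Schistosoma, 10 uM Cbz-Phe-Arg-AMC; falcipain, 10 uM Cbz-Leu-Arg-AMC; cruzain, 4 uM Ac-Lys-Glu-Lys-Leu-Arg-AMC. Linear curves gave Ki,app; curved ones gave kobs/[I].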"}, "[6]": {"biological_target": "Falcipain 2 (Plasmodium falciparum, UniProt Q8I6U4)", "sequence (Q8I6U4 244-484)": "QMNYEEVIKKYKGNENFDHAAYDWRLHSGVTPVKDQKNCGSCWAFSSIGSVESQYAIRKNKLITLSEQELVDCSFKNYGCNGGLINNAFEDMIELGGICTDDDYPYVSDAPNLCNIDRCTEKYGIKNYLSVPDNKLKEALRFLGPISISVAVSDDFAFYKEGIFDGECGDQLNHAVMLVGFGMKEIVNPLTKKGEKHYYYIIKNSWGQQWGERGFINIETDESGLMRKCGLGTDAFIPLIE", "assay": "Cysteine protease inhibition, progress curve method, falcipain", "format": "biochemical", "details": "10 uM Cbz-Leu-Arg-AMC, 100 mM Na acetate pH 5.5, 5 mM cysteine", "procedure,_shortened": "as §8"}, "[7]": {"biological_target": "Leishmania L (Leishmania major, UniProt P90628)", "sequence (P90628 126-443)": "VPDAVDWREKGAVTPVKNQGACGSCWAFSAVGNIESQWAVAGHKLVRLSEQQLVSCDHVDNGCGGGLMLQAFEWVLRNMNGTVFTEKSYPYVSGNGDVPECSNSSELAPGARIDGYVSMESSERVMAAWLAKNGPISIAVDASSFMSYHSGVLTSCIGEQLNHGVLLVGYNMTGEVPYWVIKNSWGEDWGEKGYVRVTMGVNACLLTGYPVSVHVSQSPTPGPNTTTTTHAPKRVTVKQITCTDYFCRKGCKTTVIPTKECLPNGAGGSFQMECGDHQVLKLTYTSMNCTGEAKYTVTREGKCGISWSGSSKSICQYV", "assay": "Cysteine protease inhibition, progress curve method, leishmania L", "format": "biochemical, Leishmania spp", "details": "10 uM Cbz-Phe-Arg-AMC, 100 mM Na acetate pH 5.5, 5 mM cysteine", "method": "as §1, with “Product progress curves were generated over 20 to 30 minutes following formation of AMC product.” left out\nPotential inhibitors were evaluated using the progress curve method. […] For those compounds whose progress curves were linear, apparent inhibition constants (Ki,app) were calculated according to equation 1 (Brandt et al., Biochemitsry, 1989, 28, 140): […]\nas §6, with “A complete discussion of this kinetic treatment has been fully described (Morrison et al., Adv. Enzymol. Relat. Areas Mol. Biol., 1988, 61, 201).” left out"}}}
{"molecule": "CC(C)C[C@H](NC(=O)c1cc2ccccc2o1)C(=O)N[C@H]1CCCN(S(=O)(=O)c2ccc(Cl)cc2)CC1=O", "note": "[Example 131, Benzofuran-2-carboxylic acid {(S)-1-[1-(4-chloro-benzenesulfonyl)-3-oxo-azepan-4-ylcarbamoyl]-3-methyl-butyl}-amide]", "values": [{"measurement": "Ki", "setting": "[1]", "result": 11, "unit": "nM"}, {"measurement": "Ki", "setting": "[2]", "result": 75, "unit": "nM"}, {"measurement": "Ki", "setting": "[3]", "result": 300, "unit": "nM"}]}
{"molecule": "O=C(N[C@@H](Cc1ccc2ccccc2c1)C(=O)NC1CCCN(S(=O)(=O)c2ccccn2)CC1=O)c1cccc2ccccc12", "note": "(single isomer, unassigned) [Example 188]", "values": [{"measurement": "Ki", "setting": "[4]", "result": 4, "unit": "nM"}, {"measurement": "Ki", "setting": "[1]", "result": 2.8, "unit": "nM"}, {"measurement": "Ki", "setting": "[2]", "result": 24, "unit": "nM"}, {"measurement": "Ki", "setting": "[3]", "result": 22, "unit": "nM"}]}
{"molecule": "CC(C)C[C@H](NC(=O)c1cc2ccccc2s1)C(=O)N[C@@H]1CCCN(S(=O)(=O)c2ccc(F)cc2)CC1=O", "note": "[Example 108, Benzo[b]thiophene-2-carboxylic acid-{(S)-1-[1-(4-fluoro-benzenesulfonyl)-3-oxo-azepan-4-ylcarbamoyl]-3-methyl-butyl}-amide]", "values": [{"measurement": "Ki", "setting": "[5]", "result": 20, "unit": "nM"}, {"measurement": "Ki", "setting": "[1]", "result": 9.4, "unit": "nM"}, {"measurement": "Ki", "setting": "[2]", "result": 34, "unit": "nM"}, {"measurement": "Ki", "setting": "[3]", "result": 110, "unit": "nM"}]}
{"molecule": "COc1ccc2oc(C(=O)N[C@@H](CC(C)C)C(=O)N[C@H]3CCCN(S(=O)(=O)c4ccc(Cl)cc4)CC3=O)cc2c1", "note": "[Example 132, 5-Methoxy-benzofuran-2-carboxylic acid {(S)-1-[1-(4-chloro-benzenesulfonyl)-3-oxo-azepan-4-ylcarbamoyl]-3-methyl-butyl}-amide]", "values": [{"measurement": "Ki", "setting": "[1]", "result": 8.1, "unit": "nM"}, {"measurement": "Ki", "setting": "[2]", "result": 150, "unit": "nM"}, {"measurement": "Ki", "setting": "[3]", "result": 880, "unit": "nM"}]}
{"molecule": "O=C(N[C@@H](Cc1ccc2ccccc2c1)C(=O)NC1CCCN(S(=O)(=O)c2ccccn2)CC1=O)c1cccc2ccccc12", "note": "(stereo partly drawn) [Example 175, Naphthalene-1-carboxylic acid {(S)-2-naphthalen-2-yl-1-[3-oxo-1-(pyridine-2-sulfonyl)-azepan-4-ylcarbamoyl)-ethyl]-amide]", "values": [{"measurement": "Ki", "setting": "[4]", "result": 5.6, "unit": "nM"}, {"measurement": "Ki", "setting": "[1]", "result": 1.7, "unit": "nM"}, {"measurement": "Ki", "setting": "[2]", "result": 37, "unit": "nM"}, {"measurement": "Ki", "setting": "[3]", "result": 21, "unit": "nM"}]}
{"molecule": "CC(C)CC(NC(=O)c1cc2ccccc2o1)C(=O)NC1CC[C@@H](C)N(S(=O)(=O)c2ccccn2)CC1=O", "note": "(single isomer, unassigned) [Example 182]", "values": [{"measurement": "Ki", "setting": "[4]", "result": 1.1, "unit": "nM"}, {"measurement": "Ki", "setting": "[1]", "result": 4.3, "unit": "nM"}, {"measurement": "Ki", "setting": "[2]", "result": 61, "unit": "nM"}, {"measurement": "Ki", "setting": "[3]", "result": 45, "unit": "nM"}]}
{"molecule": "CC(C)C[C@H](NC(=O)c1cc2sccc2s1)C(=O)N[C@H]1C[C@H](C)CN(S(=O)(=O)c2ccccn2)CC1=O", "note": "[Example 200, Thieno[3,2-]thiophene-2-carboxylic acid {(S)-3-methyl-1-[6-methyl-3-oxo-1-(pyridine-2-sulfonyl)-azepan-4-ylcarbamoyl]-butyl}-amide]", "values": [{"measurement": "Ki", "setting": "[6]", "result": 4.1, "unit": "nM"}, {"measurement": "Ki", "setting": "[5]", "result": 2.7, "unit": "nM"}, {"measurement": "Ki", "setting": "[4]", "result": 2.3, "unit": "nM"}, {"measurement": "Ki", "setting": "[1]", "result": 4.7, "unit": "nM"}, {"measurement": "Ki", "setting": "[2]", "result": 63, "unit": "nM"}, {"measurement": "Ki", "setting": "[3]", "result": 65, "unit": "nM"}]}
{"molecule": "CC(C)C[C@H](NC(=O)c1cc2ccccc2s1)C(=O)N[C@H]1CCCN(S(=O)(=O)c2ccc(Cl)cc2)CC1=O", "note": "[Example 135, Benzo[b]thiophene-2-carboxylic acid-{(S)-1-[1-(4-chloro-benzenesulfonyl)-3-oxo-azepan-4-ylcarbamoyl]-3-methyl-butyl}-amide]", "values": [{"measurement": "Ki", "setting": "[1]", "result": 8, "unit": "nM"}, {"measurement": "Ki", "setting": "[2]", "result": 75, "unit": "nM"}, {"measurement": "Ki", "setting": "[3]", "result": 270, "unit": "nM"}]}
{"molecule": "Cc1c(C(=O)N[C@@H](CC(C)C)C(=O)N[C@H]2CCCN(S(=O)(=O)c3cccc(Cl)c3)CC2=O)oc2ccccc12", "note": "[Example 90, 3-Methyl-benzofuran-2-carboxylic acid-{(S)-1-[1-(3-chloro-benzenesulfonyl)-3-oxo-azepan-4-ylcarbamoyl]-3-methyl-butyl}-amide]", "values": [{"measurement": "Ki", "setting": "[1]", "result": 3.3, "unit": "nM"}, {"measurement": "Ki", "setting": "[2]", "result": 48, "unit": "nM"}, {"measurement": "Ki", "setting": "[3]", "result": 71, "unit": "nM"}]}
{"molecule": "COc1ccc2oc(C(=O)N[C@@H](CC(C)C)C(=O)N[C@H]3CCCN(S(=O)(=O)c4cccc(Cl)c4)CC3=O)cc2c1", "note": "[Example 89, 5-Methoxy-benzofuran-2-carboxylic acid-{(S)-1-[1-(3-chloro-benzenesulfonyl)-3-oxo-azepan-4-ylcarbamoyl]-3-methyl-butyl}-amide]", "values": [{"measurement": "Ki", "setting": "[5]", "result": 11, "unit": "nM"}, {"measurement": "Ki", "setting": "[1]", "result": 24, "unit": "nM"}, {"measurement": "Ki", "setting": "[2]", "result": 34, "unit": "nM"}, {"measurement": "Ki", "setting": "[3]", "result": 130, "unit": "nM"}]}
{"molecule": "O=C(N[C@@H](Cc1ccc2ccccc2c1)C(=O)NC1CCCN(S(=O)(=O)c2ccccn2)CC1=O)c1cccc2cccnc12", "note": "(stereo partly drawn) [Example 174, Quinoline-8-carboxylic acid {(S)-2-naphthalen-2-yl-1-[3-oxo-1-(pyridine-2-sulfonyl)-azepan-4-ylcarbamoyl)-ethyl]-amide]", "values": [{"measurement": "Ki", "setting": "[4]", "result": 4.7, "unit": "nM"}, {"measurement": "Ki", "setting": "[1]", "result": 1.7, "unit": "nM"}, {"measurement": "Ki", "setting": "[2]", "result": 27, "unit": "nM"}, {"measurement": "Ki", "setting": "[3]", "result": 8.3, "unit": "nM"}]}
{"molecule": "Naphthlene-2-carboxylic acid ((S)-3-methyl-1-{3-oxo-1-[2-(3-pyridin-2-yl-phenyl)ethyl]-azepan-4-ylcarbamoyl}-butyl)amide [Example 10]", "values": [{"measurement": "Ki", "setting": "[7]", "result": 82, "unit": "nM"}]}
